Results: paper PMC7533037, “Purification, structural analysis, and stability of antioxidant peptides from purple wheat bran” (BMC Chemistry, 2020)
Residues, ends and D or L forms follow the SMILES beside them. No end group written: not given here.

Tests used:
[1] = Temperature stability of antioxidant activity; format: physicochemical; settings: compared with the three other peptides; read-out superoxide scavenging and TEAC
Protocol: The antioxidant activities of purple wheat bran antioxidant peptides at different passivation temperatures for 60 min were studied. The detection method of antioxidant activities was shown in 2.4. Before the antioxidant activities were measured, the samples allowed to cool to room temperature (25 °C) and pH was adjusted to 7.0.
(§1) Peptides 2 and 4 synthesized in this study might be better antioxidants than the other peptides because of their high resistance to superoxide anion radical and high TEACs (Fig. 5) (P < 0.05). The peptide concentrations for the determination of superoxide anion radical scavenging activity and TEAC in the stability study (3.5 and 3.6) were chosen to be 1.0 and 0.5 mg/mL, respectively, according to the experimental results.

pepsin = experiment: In vitro digestion stability, pepsin; format: in vitro ADME; settings: simulated gastrointestinal digestion, compared with before digestion, peptide 0.5 mg/mL (TEAC), 1.0 mg/mL (superoxide), n = 3
Source text: (§2) According to the main components of human gastrointestinal digestive juice and digestive environment, a human gastrointestinal digestion simulation system was established to study the antioxidant activity changes of peptides after digestion by human gastrointestinal digestion simulation system. The method was according to the previously reported by Jang et al..
as §1

trypsin = experiment: In vitro digestion stability, trypsin; format: in vitro ADME; settings: simulated gastrointestinal digestion, compared with before digestion, peptide 0.5 mg/mL (TEAC), 1.0 mg/mL (superoxide), n = 3
Source text: as §2, §1

chymotrypsin = experiment: In vitro digestion stability, chymotrypsin; format: in vitro ADME; settings: simulated gastrointestinal digestion, individually or continuously, compared with before digestion, peptide 0.5 mg/mL (TEAC), 1.0 mg/mL (superoxide), n = 3
Source text: as §2, §1

[2] = Superoxide anion radical scavenging activity assay (pyrogallol autoxidation method); format: biochemical; settings: synthesized peptides, Tris-HCl pH 8.3, 320 nm, n = 3
Protocol: Superoxide anion radical scavenging activity assay was measured using the pyrogallol autoxidation method with some modifications. Mix 1.6 mL of sample with an equal volume of 50 mM Tris–HCl buffer (pH 8.3). The mixture was incubated in a bath for 20 min, then 0.8 mL of 1.5 mM pyrogallic acid was added. Absorbance of the mixture was measured at 320 nm every 30 s for 5 min. For blank, 1.6 mL of Tris–HCl buffer was used instead of sample. Ascorbic acid and GSH were used as positive controls. Superoxide anion radical scavenging activity was calculated as: O2-clearancerate%=1-ΔODS/ΔODb×100%, Where,ΔODSandΔODb represented slope of absorbance line for sample and slope of absorbance line for blank.

[3] = Trolox equivalent antioxidant capacity (TEAC), ABTS radical scavenging; format: biochemical; settings: synthesized peptides; PBS pH 7.4, 30 °C, 30 min, 734 nm; n = 3
Protocol: The experiment referred to methods of Costa and Xing and made appropriate modifications. This method used Trolox as the standard antioxidant and all reagents were prepared in 50 mmol/L phosphate buffered solution (pH 7.4). The specific operation was as follows: PBS (50 µL) solution (blank group), different concentrations of Trolox solution (standard control group) and sample solution to be tested (sample group) were added to a transparent 96-well microplate, and then 150 µL ABTS^+· was quickly added. The solution was shaken at 30 °C for 30 min and its absorbance was measured at 734 nm using a microplate scanning spectrophotometer (Multiskan FC, Thermo Fisher Scientific (Shanghai), China). ABTS radical scavenging activity was calculated as ABTS+·clearancerate%=1-ASample/ABlank×100

Row | Molecule | temperature stability (overall) [1] | TEAC and superoxide anion radical scavenging activity after digestion by pepsin (pepsin) | TEAC and superoxide anion radical scavenging activity after digestion by trypsin (trypsin) | TEAC and superoxide anion radical scavenging activity after digestion by chymotrypsin (chymotrypsin) | IC50, superoxide anion radical scavenging [2] | IC50, TEAC (ABTS radical scavenging) [3]
1 | C[C@H](NC(=O)[C@@H](N)CCC(N)=O)C(=O)N[C@@H](CS)C(=O)O [peptide 2, Gln-Ala-Cys] (H-Gln-Ala-Cys-OH) | better temperature stability | remained at the same levels | remained at the same levels | remained at the same levels |  | 
2 | N=C(N)NCCC[C@H](N)C(=O)N[C@@H](CC(N)=O)C(=O)N[C@@H](Cc1ccccc1)C(=O)O [peptide 3, Arg-Asn-Phe] (H-Arg-Asn-Phe-OH) |  | insignificant changes | significantly declined | significant reduction |  | 
3 | N[C@@H](CO)C(=O)N[C@@H](CO)C(=O)N[C@@H](CS)C(=O)O [peptide 4, Ser-Ser-Cys] (H-Ser-Ser-Cys-OH) | better temperature stability | remained at the same levels | remained at the same levels | remained at the same levels |  | 
4 | N[C@@H](Cc1c[nH]c2ccccc12)C(=O)N[C@@H](Cc1ccccc1)C(=O)O [peptide 5, Trp-Phe] (H-Trp-Phe-OH) |  | insignificant changes |  | significant reduction |  | 
5 | CGFPGHC (cysteine pairing not given here) [peptide 1, antioxidant peptide identified in F4-4 of purple wheat bran protein hydrolysate, synthesized by Fmoc solid phase method] |  | insignificant changes |  | significant reduction | 2898 µg/mL | 763 µg/mL
